Experimental data: the NIST ThermoML archive (doi:10.1021/acs.jced.7b00836)
Numbers after ± are expanded uncertainties.

Settings: Liquid, Closed cell (Static) method

| vapor or sublimation pressure (288.25 K) | vapor or sublimation pressure (296.24 K) | vapor or sublimation pressure (288.24 K) | vapor or sublimation pressure (296.23 K) | SMILES |
| --- | --- | --- | --- | --- |
| 48 ± 4 kPa | 66 ± 4 kPa | – | – | CCCCC [pentane] |
| – | – | 17 ± 4 kPa | 21 ± 4 kPa | CCCCCC [hexane] |
